# “And” between values parts separate entries of the source, which are not always exact repeats. Identical values can stand only once.
# How the values were obtained:
# CB1 receptor [1] = target: T1, CB1 receptor (Homo sapiens, UniProt P21554); assay: Binding assay for CB1 agonists or inverse agonists (SK-N-MC membranes, [3H]-CP-55,940); settings: for IC50: Cannabinoid CB1 Receptor Binding IC50, calculated by linear regression from percent inhibition at various test concentrations; for inhibition at 0.2 µM: read-out: CB1 receptor binding percent inhibition, test concentration 0.2 μM (footnote 2)
# T1 construct: expressed in transfected cells
# In short: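 Radioligand displacement: [3H]-CP-55,940 at […], 90 min at 30° C, pH 7.5 Tris buffer with 0.5 mg/mL fatty-acid-free BSA, using semi-purified membranes of human-CB1-transfected SK-N-MC cells. Bound counts collected on GF/C filters, 10 uM WIN 55,212 for non-specific; IC50 from percent inhibition over several concentrations.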
# CB2 receptor = target: T2, CB2 receptor (Homo sapiens, UniProt P34972); assay: Binding assay for CB2 agonists or inverse agonists (SK-N-MC membranes, [3H]-CP-55,940); settings: for inhibition at 0.2 µM: read-out: CB2 receptor binding percent inhibition, test concentration 0.2 μM (footnote 2)
# T2 construct: expressed in transfected cells
# In short: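 IC50 came from percent-inhibition data over several compound concentrations, fitted by linear regression. Binding used semi-purified membranes of human CB2-transfected SK-N-MC cells, 90 min at 30 °C, pH 7.5 Tris-HCl with MgCl2, EDTA and BSA, then filtration and scintillation counting.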
# CB1 receptor [2] = target: T1, CB1 receptor; assay: cell-based; settings: CB1 Receptor Functional Inverse Agonist EC50, forskolin induced β-galactosidase activity, SK-N-MC cells
# In short: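 Read-out is forskolin-driven CRE-β-gal reporter activity in stably transfected human-CB1 SK-N-MC cells, normalised to vehicle (100%); agonism lowers, inverse agonism raises signal. Values are EC50 (linear regression, multiple concentrations) or % change at one concentration.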
# T1 sequence (P21554 whole entry): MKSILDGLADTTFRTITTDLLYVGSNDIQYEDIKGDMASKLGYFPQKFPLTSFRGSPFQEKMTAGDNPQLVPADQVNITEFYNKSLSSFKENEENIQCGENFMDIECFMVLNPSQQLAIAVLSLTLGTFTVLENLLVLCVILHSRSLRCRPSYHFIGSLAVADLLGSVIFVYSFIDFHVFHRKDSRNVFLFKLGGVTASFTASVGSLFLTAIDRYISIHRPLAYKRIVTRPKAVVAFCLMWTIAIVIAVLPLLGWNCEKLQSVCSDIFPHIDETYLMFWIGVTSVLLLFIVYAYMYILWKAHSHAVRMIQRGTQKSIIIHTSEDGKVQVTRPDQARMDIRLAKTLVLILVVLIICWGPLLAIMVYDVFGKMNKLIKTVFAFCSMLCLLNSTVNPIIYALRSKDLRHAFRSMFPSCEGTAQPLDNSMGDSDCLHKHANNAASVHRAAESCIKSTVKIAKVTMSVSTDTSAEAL
# T2 sequence (P34972 whole entry): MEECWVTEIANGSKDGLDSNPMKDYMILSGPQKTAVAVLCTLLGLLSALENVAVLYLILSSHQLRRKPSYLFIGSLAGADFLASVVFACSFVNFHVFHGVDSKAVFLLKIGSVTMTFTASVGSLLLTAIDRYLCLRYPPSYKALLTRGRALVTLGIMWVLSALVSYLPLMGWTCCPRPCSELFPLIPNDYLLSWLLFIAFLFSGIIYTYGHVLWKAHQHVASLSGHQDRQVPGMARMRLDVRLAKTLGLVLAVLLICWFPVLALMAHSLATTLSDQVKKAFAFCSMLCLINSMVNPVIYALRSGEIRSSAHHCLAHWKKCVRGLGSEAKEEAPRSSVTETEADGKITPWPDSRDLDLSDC
SMILES,IC50 (CB1 receptor [1]),inhibition at 0.2 µM (CB1 receptor [1]) [%],inhibition at 0.2 µM (CB2 receptor) [%],EC50 (CB1 receptor [2]) [µM],"CB1 receptor binding percent inhibition (CB1 receptor [1]; test concentration 0.2 μM (footnote 2), 0.2 µM) [%]","CB1 receptor binding average percent inhibition (CB1 receptor [1]; value shown is an average percent inhibition (footnote 5), concentration not given) [%]","inhibition at 1 µM (CB2 receptor; read-out: CB2 receptor binding percent inhibition, test concentration 1 μM (footnote 1)) [%]"
"CC[C@@H](NC(=O)c1nn(-c2ccc(Cl)cc2Cl)c2c1CCCC/C2=C\c1ccc(F)cc1)c1ccccc1 [Cpd 202, (8E)-1-(2,4-dichloro-phenyl)-8-(4-fluoro-benzylidene)-1,4,5,6,7,8-hexahydro-cycloheptapyrazole-3-carboxylic acid [(1R)-1-phenyl-propyl]-amide]",0.01 µM,91,9,0.009,,,
"O=C(N[C@H](CO)c1ccccc1)c1nn(-c2ccc(Cl)cc2Cl)c2c1CCCC/C2=C\c1ccc(F)cc1 [Cpd 204, (8E)-1-(2,4-dichloro-phenyl)-8-(4-fluoro-benzylidene)-1,4,5,6,7,8-hexahydro-cycloheptapyrazole-3-carboxylic acid [(1S)-2-hydroxy-1-phenyl-ethyl]-amide]",0.03 µM,88,34,0.003,,,
"CC(C)(NC(=O)c1nn(-c2ccc(Cl)cc2Cl)c2c1CCCC/C2=C\c1ccc(F)cc1)c1ccccc1 [Cpd 205, (8E)-1-(2,4-dichloro-phenyl)-8-(4-fluoro-benzylidene)-1,4,5,6,7,8-hexahydro-cycloheptapyrazole-3-carboxylic acid (1-methyl-1-phenyl-ethyl)-amide]",0.02 µM,93,27,0.009,,,
"O=C(c1nn(-c2ccc(Cl)cc2Cl)c2c1CCCC/C2=C\c1ccc(F)cc1)N1CCCCC1c1ccccn1 (centres unmarked) [Cpd 206, (8E)-[1-(2,4-dichloro-phenyl)-8-(4-fluoro-benzylidene)-1,4,5,6,7,8-hexahydro-cycloheptapyrazol-3-yl]-(3,4,5,6-tetrahydro-2H-[2,2′]bipyridinyl-1-yl)-methanone]",0.08 µM,73,22,0.01,,,
"O=C(N[C@@H]1CCc2ccccc21)c1nn(-c2ccc(Cl)cc2Cl)c2c1CCCC/C2=C\c1ccc(F)cc1 [Cpd 207, (8E)-1-(2,4-dichloro-phenyl)-8-(4-fluoro-benzylidene)-1,4,5,6,7,8-hexahydro-cycloheptapyrazole-3-carboxylic acid (1R)-indan-1-ylamide]",0.02 µM,90,1,0.007,,,
"O=C(N[C@H]1c2ccccc2C[C@H]1O)c1nn(-c2ccc(Cl)cc2Cl)c2c1CCCC/C2=C\c1ccc(F)cc1 [Cpd 208, (8E)-1-(2,4-dichloro-phenyl)-8-(4-fluoro-benzylidene)-1,4,5,6,7,8-hexahydro-cycloheptapyrazole-3-carboxylic acid [(1S,2R)-2-hydroxy-indan-1-yl]-amide]",0.07 µM,76,31,0.01,,,
"O=C(NC1CCCc2ccccc21)c1nn(-c2ccc(Cl)cc2Cl)c2c1CCCC/C2=C\c1ccc(F)cc1 (centres unmarked) [Cpd 209, (8E)-1-(2,4-dichloro-phenyl)-8-(4-fluoro-benzylidene)-1,4,5,6,7,8-hexahydro-cycloheptapyrazole-3-carboxylic acid (1,2,3,4-tetrahydro-naphthalen-1-yl)-amide]",0.03 µM,88,8,0.01,,,
"COc1ccc(/C=C2\CCCCc3c(C(=O)NCc4ccccn4)nn(-c4ccc(Cl)cc4Cl)c32)cc1 [Cpd 210, (8E)-1-(2,4-dichloro-phenyl)-8-(4-methoxy-benzylidene)-1,4,5,6,7,8-hexahydro-cycloheptapyrazole-3-carboxylic acid (pyridin-2-ylmethyl)-amide]",0.04 µM,76,49,0.02,,,
"COc1ccc(/C=C2\CCCCc3c(C(=O)NC(C)(C)c4ccccc4)nn(-c4ccc(Cl)cc4Cl)c32)cc1 [Cpd 211, (8E)-1-(2,4-dichloro-phenyl)-8-(4-methoxy-benzylidene)-1,4,5,6,7,8-hexahydro-cycloheptapyrazole-3-carboxylic acid (1-methyl-1-phenyl-ethyl)-amide]",0.007 µM,92,37,0.02,,,
"COc1ccc(/C=C2\CCCCc3c(C(=O)N[C@H](C)c4ccccc4)nn(-c4ccc(Cl)cc4Cl)c32)cc1 [Cpd 212, (8E)-1-(2,4-dichloro-phenyl)-8-(4-methoxy-benzylidene)-1,4,5,6,7,8-hexahydro-cycloheptapyrazole-3-carboxylic acid [(1R)-1-phenyl-ethyl]-amide]",0.006 µM,94,42,0.02,,,
"COc1ccc(/C=C2\CCCCc3c(C(=O)N[C@@H](C)c4ccccc4)nn(-c4ccc(Cl)cc4Cl)c32)cc1 [Cpd 213, (8E)-1-(2,4-dichloro-phenyl)-8-(4-methoxy-benzylidene)-1,4,5,6,7,8-hexahydro-cycloheptapyrazole-3-carboxylic acid [(1S)-1-phenyl-ethyl]-amide]",0.06 µM,71,19,0.01,,,
"COc1ccc(/C=C2\CCCCc3c(C(=O)N[C@H](C)C4CCCCC4)nn(-c4ccc(Cl)cc4Cl)c32)cc1 [Cpd 214, (8E)-1-(2,4-dichloro-phenyl)-8-(4-methoxy-benzylidene)-1,4,5,6,7,8-hexahydro-cycloheptapyrazole-3-carboxylic acid [(1R)-1-cyclohexyl-ethyl]-amide]",0.007 µM,95,43,0.03,,,
"COc1ccc(/C=C2\CCCCc3c(C(=O)N[C@H](CO)c4ccccc4)nn(-c4ccc(Cl)cc4Cl)c32)cc1 [Cpd 215, (8E)-1-(2,4-dichloro-phenyl)-8-(4-methoxy-benzylidene)-1,4,5,6,7,8-hexahydro-cycloheptapyrazole-3-carboxylic acid [(1S)-2-hydroxy-1-phenyl-ethyl]-amide]",0.01 µM,88,24,0.01,,,
"COc1ccc(/C=C2\CCCCc3c(C(=O)N[C@@H]4CCc5ccccc54)nn(-c4ccc(Cl)cc4Cl)c32)cc1 [Cpd 216, (8E)-1-(2,4-dichloro-phenyl)-8-(4-methoxy-benzylidene)-1,4,5,6,7,8-hexahydro-cycloheptapyrazole-3-carboxylic acid (1R)-indan-1-ylamide]",0.009 µM,91,33,0.05,,,
"COc1ccc(/C=C2\CCCCc3c(C(=O)NN4CCCCC4)nn(-c4ccc(Cl)cc4Cl)c32)cc1 [Cpd 217, (8E)-1-(2,4-dichloro-phenyl)-8-(4-methoxy-benzylidene)-1,4,5,6,7,8-hexahydro-cycloheptapyrazole-3-carboxylic acid piperidin-1-ylamide]",0.06 µM,75,52,0.02,,,
"COc1ccc(/C=C2\CCCCc3c(C(=O)NC(C)c4ccccn4)nn(-c4ccc(Cl)cc4Cl)c32)cc1 (centres unmarked) [Cpd 222, (8E)-1-(2,4-dichloro-phenyl)-8-(4-methoxy-benzylidene)-1,4,5,6,7,8-hexahydro-cycloheptapyrazole-3-carboxylic acid (1-pyridin-2-yl-ethyl)-amide]",0.03 µM,48,41,0.03,,,
"CC(NC(=O)c1nn(-c2ccc(Cl)cc2Cl)c2c1CCCC/C2=C\c1ccc(F)cc1)c1ccccn1 (centres unmarked) [Cpd 224, (8E)-1-(2,4-dichloro-phenyl)-8-(4-fluoro-benzylidene)-1,4,5,6,7,8-hexahydro-cycloheptapyrazole-3-carboxylic acid (1-pyridin-2-yl-ethyl)-amide]",0.008 µM,87,4,0.004,,,
"C[C@@H](NC(=O)c1nn(-c2ccc(Cl)cc2Cl)c2c1CCCC/C2=C\c1ccc(F)cc1)c1ccccn1 [Cpd 225, (8E)-1-(2,4-dichloro-phenyl)-8-(4-fluoro-benzylidene)-1,4,5,6,7,8-hexahydro-cycloheptapyrazole-3-carboxylic acid [(1R)-1-pyridin-2-yl-ethyl]-amide]",0.005 µM and 0.006 µM and 0.007 µM,90,6,0.001,89,96,16
"COc1ccc(/C=C2\CCCCc3c(C(=O)NN4CC5CCCC5C4)nn(-c4ccc(Cl)cc4Cl)c32)cc1 (centres unmarked) [Cpd 226, (8E)-1-(2,4-dichloro-phenyl)-8-(4-methoxy-benzylidene)-1,4,5,6,7,8-hexahydro-cycloheptapyrazole-3-carboxylic acid (hexahydro-cyclopenta[c]pyrrol-2-yl)-amide]",0.04 µM,72,48,0.003,,,
"COc1ccc(/C=C2\CCCCc3c(C(=O)N[C@H](C)c4ccccn4)nn(-c4ccc(Cl)cc4Cl)c32)cc1 [Cpd 227, (8E)-1-(2,4-dichloro-phenyl)-8-(4-methoxy-benzylidene)-1,4,5,6,7,8-hexahydro-cycloheptapyrazole-3-carboxylic acid [(1R)-1-pyridin-2-yl-ethyl)-amide]",0.009 µM,90,19,0.002,,,
